Data on 19 compounds can be found in patent US20210395239A1 (Hoffmann-La Roche Inc., priority 2018, published 2021).

In the assay the target is T1, human TLR8 (Homo sapiens, UniProt Q9NR97).
T1 construct: host or cells: HEK293 (HEK-Blue hTLR8)
T1 sequence (Q9NR97 27-1041): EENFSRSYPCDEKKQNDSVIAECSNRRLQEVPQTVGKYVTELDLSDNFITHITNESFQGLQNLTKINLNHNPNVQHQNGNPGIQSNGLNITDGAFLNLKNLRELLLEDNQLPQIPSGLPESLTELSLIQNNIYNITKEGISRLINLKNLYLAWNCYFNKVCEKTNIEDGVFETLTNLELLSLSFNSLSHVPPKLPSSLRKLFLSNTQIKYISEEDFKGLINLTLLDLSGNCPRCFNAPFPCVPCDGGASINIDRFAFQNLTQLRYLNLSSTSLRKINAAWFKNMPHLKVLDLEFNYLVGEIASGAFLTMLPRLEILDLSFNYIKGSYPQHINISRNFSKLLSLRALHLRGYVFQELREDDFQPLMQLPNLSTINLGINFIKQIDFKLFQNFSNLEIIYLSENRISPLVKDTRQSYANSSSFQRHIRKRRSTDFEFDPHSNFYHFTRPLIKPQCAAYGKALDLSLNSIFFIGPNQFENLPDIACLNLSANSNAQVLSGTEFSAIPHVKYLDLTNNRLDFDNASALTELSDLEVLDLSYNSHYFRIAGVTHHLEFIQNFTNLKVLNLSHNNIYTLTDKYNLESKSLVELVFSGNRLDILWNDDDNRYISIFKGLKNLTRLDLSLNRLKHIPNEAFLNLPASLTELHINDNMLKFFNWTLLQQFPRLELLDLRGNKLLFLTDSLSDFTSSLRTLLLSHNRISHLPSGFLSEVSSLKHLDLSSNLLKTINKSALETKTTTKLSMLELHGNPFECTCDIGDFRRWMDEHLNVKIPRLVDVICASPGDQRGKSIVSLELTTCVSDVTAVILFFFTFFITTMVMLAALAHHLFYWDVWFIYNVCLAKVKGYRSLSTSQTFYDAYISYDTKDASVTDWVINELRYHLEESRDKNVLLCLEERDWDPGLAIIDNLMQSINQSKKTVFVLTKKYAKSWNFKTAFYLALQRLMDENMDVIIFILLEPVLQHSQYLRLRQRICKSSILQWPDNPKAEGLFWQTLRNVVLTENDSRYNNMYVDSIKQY
As to the kind of experiment: HEK293-Blue-hTLR-8 cells assay (SEAP reporter, R848 stimulation). It counts as cell-based. The following applies: HEK293-Blue-hTLR8 cells, R848, 20 hrs; read-out: HEK/hTLR8 IC50. The method, boiled down: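 HEK293-Blue-hTLR8 cells (NF-κB/AP-1-driven SEAP) incubated 20 h at 37° C with serially diluted compound (1% DMSO) plus R848 stimulation. Supernatant SEAP measured with QUANTI-Blue, 2 h at 37° C, absorbance 620–655 nm.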
For `CO[C@H]1CN(c2nc(C)cc(N3CCN(C[C@H]4CN(c5ccc(C#N)c6ncccc56)C[C@@H](C)O4)CC3)n2)CC1N` (relative stereo) [Example 59, 5-[(2R,6S)-2-methyl-6-[[4-[6-methyl-2-[trans-3-amino-4-methoxy-pyrrolidin-1-yl]pyrimidin-4-yl]piperazin-1-yl]methyl]morpholin-4-yl]quinoline-8-carbonitrile], the IC50 was 3 nM.
In the case of `COC1CNC[C@H]1Nc1cccc(N2CCN(C[C@H]3CN(c4ccc(C#N)c5ncccc45)C[C@@H](C)O3)CC2)n1` (stereo in doubt) [Example 39, 5-[(2S,6R)-2-[[4-[6-[[(3R,4R)-4-methoxypyrrolidin-3-yl]amino]-2-pyridyl]piperazin-1-yl]methyl]-6-methyl-morpholin-4-yl]quinoline-8-carbonitrile] it was 23 nM.
In the case of `COC1CN(c2nccc(N3CCN(C[C@H]4CN(c5ccc(C#N)c6ncccc56)C[C@@H](C)O4)CC3)n2)C[C@H]1N` (stereo in doubt) [Example 52, 5-[(2S,6R)-2-[[4-[2-[(3R,4R)-3-amino-4-methoxy-pyrrolidin-1-yl]pyrimidin-4-yl]piperazin-1-yl]methyl]-6-methyl-morpholin-4-yl]quinoline-8-carbonitrile] it was 3 nM; in that of `CO[C@H]1CN(c2nccc(N3CCN(C[C@H]4CN(c5ccc(C#N)c6ncccc56)C[C@@H](C)O4)CC3)n2)CC1N` (stereo in doubt) [Example 53, 5-[(2S,6R)-2-[[4-[2-[(3S,4S)-3-amino-4-methoxy-pyrrolidin-1-yl]pyrimidin-4-yl]piperazin-1-yl]methyl]-6-methyl-morpholin-4-yl]quinoline-8-carbonitrile], 3 nM.
`Cc1cc(N2CCN(C[C@H]3CN(c4ccc(C#N)c5ncccc45)C[C@@H](C)O3)CC2)nc(N2CC(N)C(F)C2)n1` (stereo in doubt) [Example 54, 5-[(2S,6R)-2-[[4-[2-[(3S,4R)-3-amino-4-fluoro-pyrrolidin-1-yl]-6-methyl-pyrimidin-4-yl]piperazin-1-yl]methyl]-6-methyl-morpholin-4-yl]quinoline-8-carbonitrile]: the IC50 was 3 nM.
The value for `COC1CN(c2ccc(C3CN(C[C@H]4CN(c5cc(=O)n(C)c6ncccc56)C[C@@H](C)O4)C3)cc2)C[C@H]1N` (stereo in doubt) [Example 172, 4-[(2S,6R)-2-[[3-[4-[(3R,4R)-3-amino-4-methoxy-pyrrolidin-1-yl]phenyl]azetidin-1-yl]methyl]-6-methyl-morpholin-4-yl]-1-methyl-1,8-naphthyridin-2-one] was 93 nM; that for `C[C@@H]1CN(c2cc(=O)n(C)c3ncccc23)C[C@H](CN2CC(c3ccc(N4CC(F)[C@H](N)C4)cc3)C2)O1` (stereo in doubt) [Example 174, 4-[(2S,6R)-2-[[3-[4-[(3R,4R)-3-amino-4-fluoro-pyrrolidin-1-yl]phenyl]azetidin-1-yl]methyl]-6-methyl-morpholin-4-yl]-1-methyl-1,8-naphthyridin-2-one] was 159 nM; that for `C[C@@H]1CN(c2ccc(C#N)n3ncc(F)c23)C[C@H](CN2CCN(c3ccc(C4CNCCO4)cc3F)CC2)O1` (stereo in doubt) [Example 183, 3-fluoro-4-[(2S,6R)-2-[[4-[2-fluoro-4-[(2S)-morpholin-2-yl]phenyl]piperazin-1-yl]methyl]-6-methyl-morpholin-4-yl]pyrazolo[1,5-a]pyridine-7-carbonitrile] was 13 nM.
In the case of `C[C@@H]1CN(c2ccc(C#N)c3ncccc23)C[C@H](CN2CCN(c3cncc(N4CCNCC4)c3)CC2)O1` [Example 7, 5-[(2R,6S)-2-methyl-6-[[4-(5-piperazin-1-yl-3-pyridyl)piperazin-1-yl]methyl]morpholin-4-yl]quinoline-8-carbonitrile] it was 9 nM.
The value for `C[C@@H]1CN(c2ccc(C#N)c3ncccc23)C[C@H](CN2CCN(c3ccc(N4CCNCC4)cn3)CC2)O1` [Example 8, 5-[(2R,6S)-2-methyl-6-[[4-(5-piperazin-1-yl-2-pyridyl)piperazin-1-yl]methyl]morpholin-4-yl]quinoline-8-carbonitrile] was 10 nM; that for `C[C@@H]1CN(c2ccc(C#N)c3ncccc23)C[C@H](CN2CCN(c3cc(N4CCNCC4)ccn3)CC2)O1` [Example 9, 5-[(2R,6S)-2-methyl-6-[[4-(4-piperazin-1-yl-2-pyridyl)piperazin-1-yl]methyl]morpholin-4-yl]quinoline-8-carbonitrile] was 3 nM; that for `C[C@@H]1CN(c2ccc(C#N)c3ncccc23)C[C@H](CN2CCN(c3cccc(N4CCNCC4)n3)CC2)O1` [Example 10, 5-[(2R,6S)-2-methyl-6-[[4-(6-piperazin-1-yl-2-pyridyl)piperazin-1-yl]methyl]morpholin-4-yl]quinoline-8-carbonitrile] was 10 nM.
For the compound `C[C@@H]1CN(c2ccc(C#N)c3ncccc23)C[C@H](CN2CCC(C#N)(c3ccc(N4CCNCC4)cc3)CC2)O1` [Example 11, 5-[(2S,6R)-2-[[4-cyano-4-(4-piperazin-1-ylphenyl)-1-piperidyl]methyl]-6-methyl-morpholin-4-yl]quinoline-8-carbonitrile], the IC50 came to 13 nM.
The value for `C[C@@H]1CN(c2ccc(C#N)c3ncccc23)C[C@H](CN2CCN(c3cnc(N4CCNCC4)nc3)CC2)O1` [Example 12, 5-[(2R,6S)-2-methyl-6-[[4-(2-piperazin-1-ylpyrimidin-5-yl)piperazin-1-yl]methyl]morpholin-4-yl]quinoline-8-carbonitrile] was 3 nM.
In the case of `C[C@@H]1CN(c2ccc(C#N)c3ncccc23)C[C@H](CN2CCN(c3ccc(N4CCNCC4)nc3)CC2)O1` [Example 13, 5-[(2R,6S)-2-methyl-6-[[4-(6-piperazin-1-yl-3-pyridyl)piperazin-1-yl]methyl]morpholin-4-yl]quinoline-8-carbonitrile] it was 5 nM.
As for `C[C@@H]1CN(c2ccc(C#N)c3ncccc23)C[C@H](CN2CCN(c3nccc(N4CCNCC4)n3)CC2)O1` [Example 14, 5-[(2R,6S)-2-methyl-6-[[4-(4-piperazin-1-ylpyrimidin-2-yl)piperazin-1-yl]methyl]morpholin-4-yl]quinoline-8-carbonitrile], the IC50 came out at 3 nM.
The value for `C[C@@H]1CN(c2ccc(C#N)c3ncccc23)C[C@H](CN2CCN(c3ccnc(N4CCNCC4)n3)CC2)O1` [Example 15, 5-[(2R,6S)-2-methyl-6-[[4-(2-piperazin-1-ylpyrimidin-4-yl)piperazin-1-yl]methyl]morpholin-4-yl]quinoline-8-carbonitrile] was 3 nM; that for `C[C@@H]1CN(c2ccc(C#N)c3ncccc23)C[C@H](CN2CCN(c3ncc(N4CCNCC4)cn3)CC2)O1` [Example 17, 5-[(2R,6S)-2-methyl-6-[[4-(5-piperazin-1-ylpyrimidin-2-yl)piperazin-1-yl]methyl]morpholin-4-yl]quinoline-8-carbonitrile] was 6 nM; that for `C[C@@H]1CN(c2ccc(C#N)c3ncccc23)C[C@H](CN2CCN(c3cc(N4CCNCC4)ncn3)CC2)O1` [Example 18, 5-[(2R,6S)-2-methyl-6-[[4-(6-piperazin-1-ylpyrimidin-4-yl)piperazin-1-yl]methyl]morpholin-4-yl]quinoline-8-carbonitrile] was 6 nM.
